From ChEMBL document CHEMBL3603752, “Discovery of N-(4-aryl-5-aryloxy-thiazol-2-yl)-amides as potent RORγt inverse agonists” (Bioorg Med Chem, 2015) come the findings set out here.

Some results are limits rather than exact numbers.

In one data set the test system is Liver. The data set is described as follows: Intrinsic clearance in mouse liver microsomes at 0.5 microM by LC/MS/MS analysis. It counts as ADME. In general terms: Liver microsomes are vesicles of endoplasmic reticulum, rich in cytochrome P450 enzymes.
In data set [1] the target is T1, Nuclear receptor ROR-gamma (Mus musculus, UniProt P51450).
T1 sequence (P51450 whole entry): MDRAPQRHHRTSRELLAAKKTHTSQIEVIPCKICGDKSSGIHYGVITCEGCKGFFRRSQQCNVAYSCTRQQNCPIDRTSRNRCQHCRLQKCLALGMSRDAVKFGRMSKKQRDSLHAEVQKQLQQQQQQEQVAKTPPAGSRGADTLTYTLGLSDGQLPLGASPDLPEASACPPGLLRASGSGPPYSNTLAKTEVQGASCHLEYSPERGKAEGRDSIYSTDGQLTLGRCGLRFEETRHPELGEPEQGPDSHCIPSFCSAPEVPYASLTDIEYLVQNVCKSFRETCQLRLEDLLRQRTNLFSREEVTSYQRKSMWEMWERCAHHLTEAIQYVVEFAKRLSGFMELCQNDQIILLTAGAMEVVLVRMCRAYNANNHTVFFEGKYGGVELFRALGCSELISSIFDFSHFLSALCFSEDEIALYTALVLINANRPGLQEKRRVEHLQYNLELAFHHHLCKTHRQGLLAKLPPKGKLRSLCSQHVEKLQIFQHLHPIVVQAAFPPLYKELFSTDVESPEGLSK
Put plainly: Inverse agonist activity at RORgammat in mouse Th17 cells assessed as inhibition of IL-17 production after 3 days by ELISA. It counts as cell-based.

The target of data set [2] is T2, Nuclear receptor ROR-gamma (Homo sapiens, UniProt P51449).
T2 sequence (P51449 whole entry): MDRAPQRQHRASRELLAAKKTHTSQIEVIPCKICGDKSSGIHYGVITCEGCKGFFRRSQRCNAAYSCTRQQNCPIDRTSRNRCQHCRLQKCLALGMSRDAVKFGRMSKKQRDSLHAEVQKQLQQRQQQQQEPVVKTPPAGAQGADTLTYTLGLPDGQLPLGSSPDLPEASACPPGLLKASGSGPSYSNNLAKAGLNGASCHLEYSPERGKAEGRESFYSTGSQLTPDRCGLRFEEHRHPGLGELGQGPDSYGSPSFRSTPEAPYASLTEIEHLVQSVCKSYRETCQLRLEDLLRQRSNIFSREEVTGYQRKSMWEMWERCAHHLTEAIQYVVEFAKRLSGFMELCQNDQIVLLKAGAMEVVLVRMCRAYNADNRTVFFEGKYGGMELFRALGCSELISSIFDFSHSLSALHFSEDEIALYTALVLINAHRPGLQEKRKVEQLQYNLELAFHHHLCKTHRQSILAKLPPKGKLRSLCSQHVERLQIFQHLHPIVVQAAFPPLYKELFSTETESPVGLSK
The data set is described as follows: Agonist activity at APC-labeled RORgammat-LBD (unknown origin) assessed as induction of europium-labeled SRC1 recruitment after 1 hr by dual FRET analysis.

Data set [3] deals with T2, Nuclear receptor ROR-gamma. Put plainly: Inverse agonist activity at APC-labeled RORgammat-LBD (unknown origin) assessed as inhibition of N-(2-chloro-6-fluorobenzyl)-N-((2'-methoxy-[1,1'-biphenyl]-4-yl)-methyl)benzenesulfonamide-induced europium-labeled SRC1 recruitment after 1 hr by FRET analysis.

Usually IC50 stands for the concentration that inhibits the measured activity by half. In turn, `CCS(=O)(=O)c1ccc(CC(=O)Nc2nc(-c3cccc(C#N)c3)c(Oc3ccc(Cl)cc3C(F)(F)F)s2)cc1` gave a CLH with Liver below 0.36 mL/min/g. Moreover, the IC50 in data set [1] is 158 nM.

As usually defined, the EC50 is the midpoint of the concentration-response curve. With `CCS(=O)(=O)c1ccc(CC(=O)Nc2nc(-c3cc(Cl)ccc3Cl)c(-c3ccccc3)s2)cc1`, the concentration giving a half-maximal response (EC50) in data set [2] is 3160 nM. Also, in data set [3], the half-maximal inhibitory concentration (IC50) was 158 nM.

`CCS(=O)(=O)c1ccc(CC(=O)Nc2nc(-c3ccccc3)c(Oc3ccccc3Cl)s2)cc1` showed a CLH in the data set on Liver of 0.46 mL/min/g. Moreover, the IC50 in data set [1] is 1580 nM.

For the compound `CCS(=O)(=O)c1ccc(CC(=O)Nc2nc(-c3ccccc3)c(Oc3ccccc3C(F)(F)F)s2)cc1`, the CLH in the data set with Liver is below 0.36 mL/min/g. Moreover, the IC50 in data set [1] is 1000 nM.

In turn, `CCS(=O)(=O)c1ccc(CC(=O)Nc2nc(-c3ccccc3)c(Oc3ccccc3OC)s2)cc1` came in with a CLH in the data set with Liver of 2.37 mL/min/g. The IC50 in data set [1] is 251 nM.

In turn, `CCS(=O)(=O)c1ccc(CC(=O)Nc2nc(-c3ccccc3)c(Oc3ccc(Cl)cc3)s2)cc1` returned a CLH with Liver below 0.36 mL/min/g. Further, in data set [1], the IC50 was 1580 nM.

In the case of `CCS(=O)(=O)c1ccc(CC(=O)Nc2nc(-c3ccccc3)c(Oc3ccc(C(F)(F)F)cc3)s2)cc1`, the CLH in the data set with Liver is below 0.36 mL/min/g. The IC50 in data set [1] is 631 nM.

In the data set with Liver, `CCS(=O)(=O)c1ccc(CC(=O)Nc2nc(-c3ccccc3)c(Oc3ccc(OC)cc3)s2)cc1` registered a CLH of 0.39 mL/min/g. For the same compound, the IC50 in data set [1] was above 10000 nM.

For the compound `CCS(=O)(=O)c1ccc(CC(=O)Nc2nc(-c3ccc(Cl)cc3)c(Oc3ccccc3)s2)cc1`, the CLH in the data set on Liver was below 0.36 mL/min/g. The IC50 in data set [1] is 3980 nM.

On to `CCS(=O)(=O)c1ccc(CC(=O)Nc2nc(-c3cccc(Cl)c3)c(Oc3ccccc3)s2)cc1`, for which the IC50 in data set [1] was 1580 nM.

Take `CCS(=O)(=O)c1ccc(CC(=O)Nc2nc(-c3cccc(Cl)c3)c(Oc3ccccc3C(F)(F)F)s2)cc1`: the CLH in the data set on Liver was below 0.36 mL/min/g. Besides, the concentration for half-maximal inhibition (IC50) in data set [1] was 2000 nM.

On to `CCS(=O)(=O)c1ccc(CC(=O)Nc2nc(-c3cccc(C#N)c3)c(Oc3ccccc3C(F)(F)F)s2)cc1`, for which, in the data set on Liver, the CLH was below 0.36 mL/min/g. In data set [1], the IC50 is 251 nM.

`CCS(=O)(=O)c1ccc(CC(=O)Nc2nc(-c3cccc(C#N)c3)c(Oc3ccc(C(F)(F)F)cc3Cl)s2)cc1` had a CLH in the data set with Liver below 0.36 mL/min/g. The IC50 in data set [1] was 398 nM.
